Source: patent publication US20240197890A1, “FLAVONE DERIVATIVES AND USES IN TARGETING CK2-MEDIATED DISEASES AND CONDITIONS” (Salk Institute for Biological Studies, priority 2020, published 2024)

Columns and labels:
[1] = molecular target: T1, recombinant human CK2a1 kinase (Homo sapiens, UniProt P68400); assay: In vitro kinase assay (PhosphoSens, Cysteine-Sox sensor peptide); type: biochemical; conditions: FIG. 4A
T1 construct: purchased Thermo Fisher PV3248
Description: Kinase assays. In vitro kinase assays were run using the Cysteine-Sox-Kinase Sensor AQT0696, 96 assay Kit (AssayQuant Tech, CSKS-AQT0696). […] Slopes corresponding to linear reaction rates were obtained for each compound concentration (RFU/sec), normalized to DMSO controls, and IC50 values were determined by applying the dose response non-linear regression model in GraphPad Prism. For kinase assays using postmortem brain tissue lysates, brain tissues were homogenized at 4° C. using a Bullet Blender (Next Advance) in kinase buffer (20 mM HEPES 7.4 pH, 150 mM NaCl, 1% Triton-X, 1 mM EDTA, 1 mM EGTA plus Halt Protease and Phosphase Inhibitor Cocktail). After sonication and clarification, protein concentration was measured by BCA Assay. CK2 activity was measured as described above, except lysates were used instead of purified kinase at 2 μL/well (˜0.3-0.4 ug protein per reaction). […] Patient lysates were individually preincubated with 20 μM CX4945 for 30 min at room temperature before initiating kinase kinetic assays.

[2] = tested on: LPS-induced cytokine release in human iPSC-derived microglia; assay: Cytokine release assay in LPS-stimulated iPSC-derived microglia; type: cell-based; conditions: 20 μM, 5 hours, panel of 36 cytokines
Description: Cytokine release assay. […] Subsequently, media cleared of cells and debris was collected, snap-frozen and stored at -80 C until processing with the Human Cytokine Array kit (R&D Systems, Catalog #ARY005). Briefly, media was diluted in Array Buffer 4 and incubated with a cocktail of biotinylated detection antibodies for 1 h at room temperature with rocking. The resulting immunocomplexes were incubated with nitrocellulose membranes spotted with capture antibodies overnight at 4 C (see below for full list of targets). The membranes were washed 4× with Wash Buffer, then incubated with IRDye 800CW Streptavidin for 30 minutes at room temperature (1:2000 in Array Buffer 5, LI-COR #926-32230). The membranes were washed 4× and imaged with an Odyssey CLx instrument. Intensity for each spot was quantified with ImageStudio. Technical duplicate values for each target were averaged, and we determined differential cytokine release by microglia exposed to LPS+vehicle versus vehicle only (n=2 biological replicates, two-tailed t-tests, P<0.05).

[3] = tested on: microglial phagocytosis of pHrodo E. coli beads; assay: Microglial phagocytosis assay; type: cell-based, human; conditions: 20 μM, 5 h treatment
Description: Phagocytosis assay. […] Then, 0.5 μl of pH rodo E. coli-FITC beads (Thermo Fisher, P35366) was added per well with gentle mixing and the cells were incubated for another 4 hours. pHrodo beads only fluoresce when they are internalized in cells. Cells were then collected by scraping, washed with FACS buffer, and counter-stained with Zombie Violet to assess viability. Live cells were analyzed on the FACS Canto instrument for geometric mean fluorescence on the FITC channel. The background FITC fluorescence value (pHrodo beads only) was subtracted from each mean, and fold-change was computed across experimental groups.

[4] = tested on: IL6 and IL8 expression in astrocytes; assay: Activation assay, ddPCR of cytokine expression in IL1-β-activated astrocytes; type: cell-based, human; conditions: astrocytes and microglia; FIG. 1D, FIG. 2C
Description: Activation assays and ddPCR. HCA or H1-derived astrocytes were treated with vehicle (DMSO) or 20 μM compound and stimulated with IL1-B 10 ng/mL for 5 h. Cells were scraped into RNA-Bee and total RNA was purified using the Direct-zol RNA kit (Zymo Research). RNA concentration was measured using Nanodrop and RNA was reverse transcribed into cDNA using the High Capacity cDNA Reverse Transcriptase Kit (Applied Biosystems). Reaction mixes consisting of TaqMan FAM probe (IL6, IL8, CSNK2A1, CSNK2A2), control TaqMan ACTB-VIC probe (TFS 4326315E), ddPCR Supermix for Probes (Bio-Rad 186-3024), and cDNA were formed into oil droplets using the QX200 Droplet Generator. After amplification (Bio-Rad C1000 Touch Thermal Cycler) according to manufacturer's instructions, the plate was read in the QX200 Droplet Reader.

AKT pS129 = AKT pS129 levels in IL1β-stimulated primary astrocytes; type: cell-based; conditions: IL1-β for 5 h
Source text: AKT pS129 is a known direct CK2 substrate.

[5] = tested on: iGluta neurons co-cultured with BD or CT astrocytes; assay: Neuronal activity of iGluta neurons co-cultured with pretreated astrocytes; type: cell-based, human; conditions: BD astrocytes pretreated 5 h with IL1β and 20 μM compound, compared to vehicle
Source text: Activity of CT astrocytes is also renormalized (C+vs. D+).

CK2α1 = assay: CK2 levels in IL1-β-stimulated human primary astrocytes (Western blot); type: cell-based; conditions: after 5 hours
Description: Western blotting. […] Cells were dissociated with 1:1 Accutase:papain for 3 min at rt, pelleted for 5 min at 800 g, and washed twice with cold DPBS. Pellets were lysed with RIPA buffer (Sigma R0278) supplemented with Halt protease inhibitor cocktail (Thermo Fisher 78445) and clarified by centrifugation (16,000 g, 10 min, 4° C.). Protein concentration was determined by BCA assay (Thermo Fisher). Proteins were denatured in 1×LDS Buffer and 2.5% beta-mercaptoethanol (X) for 10 min at 70° C., separated on Bolt 4-12% Bis-Tris Plus polyacrylamide gels (Thermo Fisher), transferred to PVDF membranes using the iBlot 2 Dry Blotting System, and blocked with 0.1% casein-PBS (Bio-Rad) for 1 h at room temperature. The blots were incubated with primary antibodies overnight at 4° C. in PBS containing 0.1% casein and 0.2% Tween-20. Antibodies used: rabbit anti-CK2a1 (Bethyl #, 1:5000), rabbit anti-CK2a2 (Bethyl #, 1:5000), mouse anti-GAPDH (Fitzgerald #10-1501, 1:20,000), mouse anti-NF-KB (CST #6956S, 1:1000), pNF-KB S529 (TFS #14-9864-82, 1:100), LC3B (CST 2775, 1:1000), ACO2 (CST 6922, 1:1000), rabbit HMGB1 (Novus #NB1002322, 1:1000), mouse anti-IκBα (CST #4814S, 1:1000), mouse anti-IκBa pS32 (SC #8404, 1:500), HA-tag (Bethyl #A190-108A, 1:20000). […] The blots were imaged using the Odyssey CLx imaging system and blots were analyzed on the ImageStudio software (LI-COR).

T1 sequence (P68400 whole entry): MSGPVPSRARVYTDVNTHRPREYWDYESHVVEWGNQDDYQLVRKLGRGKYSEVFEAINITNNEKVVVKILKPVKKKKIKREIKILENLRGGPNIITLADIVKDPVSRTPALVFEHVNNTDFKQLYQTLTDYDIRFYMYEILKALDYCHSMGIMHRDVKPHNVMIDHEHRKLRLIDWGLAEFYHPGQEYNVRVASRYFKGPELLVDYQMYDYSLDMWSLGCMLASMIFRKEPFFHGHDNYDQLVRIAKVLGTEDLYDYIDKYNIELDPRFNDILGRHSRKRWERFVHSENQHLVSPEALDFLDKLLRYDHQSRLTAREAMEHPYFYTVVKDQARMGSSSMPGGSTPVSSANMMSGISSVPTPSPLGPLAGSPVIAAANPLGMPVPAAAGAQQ

## COc1cc(-c2cc(=O)c3c(O)cc(O)cc3o2)ccc1O [CHR, chrysoeriol]
[1]
  inhibition of CK2a1 in vitro (activity class in words): active
[2]
  release of LPS-induced pro-inflammatory cytokines: significantly blocked
[3]
  microglial phagocytosis of pHrodo E. coli beads: blocked
[4]
  dose dependence of anti-inflammatory effects: dose-dependent
AKT pS129
  AKT pS129 levels: reduced
[5]
  neuronal activity (mean firing rate): increased
CK2α1
  CK2α1 levels: reduced to baseline
